Like-named read-outs stand apart in the source and are kept apart here. One block for each molecule: values may come before it.
Key:
[1] = system: NO production in LPS-induced macrophages (RAW 264.7); test: Inhibition of NO production in LPS-induced macrophages (RAW 264.7), nitrite accumulation; type: cell-based; settings: Mus musculus
Source text: Mouse monocyte-macrophages RAW 264.7 (ATCC TIB-71) were purchased from the Chinese Academy of Science. RPMI 1640 medium, penicillin, streptomycin, and fetal bovine serum were purchased from Invitrogen (NewYork, USA). Lipopolysaccharide (LPS), DMSO, 3-(4,5-dimethylthiazol-2-yl)-2,5-diphenyl-2H-tetrazolium bromide (MTT), and hydrocortisone were obtained from Sigma Chemical Co. (Saint Louis, MO, U.S.A). RAW 264.7 cells were kept in RPMI 1640 medium supplemented with penicillin (100 U/mL), streptomycin (100 μg/mL), and 10% heat-inactivated fetal bovine serum at 37°C in a humidified incubator with 5% CO2 and 95% air. RAW 264.7 cells were passaged by trypsinization until they attained confluence and were used for assays during the exponential growth phase.
Compounds 1, 4–8 were dissolved in DMSO and were further diluted with the culture medium to give a final DMSO concentration of 0.2% in the assay. This concentration of DMSO had no significant effect on the growth of the cell line tested. The procedure of NO inhibition assay was conducted as previously reported. The level of NO was assessed by measuring the accumulation of nitrite (NO2^−) using the same method as previously reported. Cytotoxicity was measured using the 3-(4,5-dimethylthiazol-2-yl)-2.5-diphenyltetrazolium bromide (MTT) assay method. The inhibition rate was calculated based on the following equation (1).

[2] = system: Staphyococcus aureus; parameters: method as in PMID 19117486; settings: Gram-positive bacterium Staphyococcus aureus; cited from earlier work
[3] = system: Fusarium solani; parameters: method as in PMID 11261579; settings: cited from earlier work
[4] = system: Helminthosporium sativum; parameters: method as in PMID 11261579; settings: cited from earlier work
[5] = system: Diplodia natelensis; parameters: method as in PMID 11261579; settings: cited from earlier work
[6] = system: biosynthesis of cyclic peptide quormones in Enterococcus faecalis; settings: Gram-positive bacteria Enterococcus faecalis; cited from earlier work
[7] = system: Fusarium cubense; parameters: method as in PMID 11261579; settings: cited from earlier work
[8] = system: Pythium ultimum; parameters: method as in PMID 11261579; settings: cited from earlier work
[9] = system: Cephalosporium gramineum; parameters: method as in PMID 11261579; settings: cited from earlier work
[10] = RAW264.7, LPS-induced RAW 264.7 macrophages, read-out: NO inhibitory activity (IC50)

SMILES: CC(=CCC12OC1C(O)C(CO)=C(C=CCCCC(C)O)C2=O)C(=O)O (stereo not drawn) [Compound 1]
IC50 [1, 10]: > 100 µM

SMILES: CCCCC/C=C/C1=C(COC(C)=O)[C@@H](O)[C@H]2O[C@@]2(C/C=C(\C)C(=O)O)[C@H]1O [Compound 4]
IC50 [1, 10]: 88.7 ± 6.74 µM

SMILES: CCCCC/C=C/C1=C(CO)[C@@H](O)[C@H]2O[C@@]2(C/C=C(\C)C(=O)O)[C@H]1O [Compound 5]
IC50 [1, 10]: > 100 µM

SMILES: CCCCC/C=C/C1=C(CO)[C@H](O)[C@H]2O[C@@]2(C/C=C(\C)C(=O)O)C1=O [Compound 7, Ambuic acid]
Antimicrobial effect [2]: antimicrobial | Antifungal effect [3]: moderate antifungal effects | Antifungal effect [4]: moderate antifungal effects | Antifungal effect [5]: moderate antifungal effects | Inhibition of biosynthesis of cyclic peptide quormones [6]: inhibits the biosynthesis of cyclic peptide quormones | Antifungal effect [7]: moderate antifungal effects | IC50 [1, 10]: 20.8 ± 1.41 µM | Antifungal effect [8]: moderate antifungal effects | Antifungal effect [9]: moderate antifungal effects

SMILES: C[C@]12CCC(=O)C=C1CC[C@@H]1[C@@H]2[C@@H](O)C[C@@]2(C)[C@H]1CC[C@]2(O)C(=O)CO [Hydrocortisone, hydrocortisone, reference compound]
IC50 ([1]; RAW264.7, read-out: NO inhibitory activity (IC50)): 53.7 ± 3.86 µM

More lines, now with the values ahead:

IC50 [1, 10]: 11.2 ± 0.79 µM
SMILES: CCCCC/C=C/C1=C(COC(C)=O)[C@@H](O)[C@H]2O[C@@]2(C/C=C(\C)C(=O)O)C1=O [Compound 6]

IC50 [1, 10]: > 100 µM
SMILES: CCCCC/C=C/C1=C(CO)C(=O)C[C@](O)(C/C=C(\C)C(=O)O)[C@H]1O [Compound 8]

Reference: PMC4437027, “New ambuic acid derivatives from the solid culture of Pestalotiopsis neglecta and their nitric oxide inhibitory activity” (Scientific Reports, 2015)
